The results in this text go back to ChEMBL document CHEMBL1146467, “A new phloroglucinol derivative from the brown alga Eisenia bicyclis: potential for the effective treatment of diabetic complications” (J Nat Prod, 2004).

A short description of data set [1]: Inhibition of advanced glycation end product formation assessed as CML level at 1 mM after 7 days in 0.1 M phosphate buffer at pH 7.4 by ELISA relative to control. The class given is physicochemical. The settings on record: pH 7.4, 168 h, 1000 µM.
Data set [2] can be described thus: Inhibition of alpha-amylase at 1 mM after 15 mins by dinitrosalicylic acid method relative to control.

A word on the inhibition: it is the drop in the measured response relative to a control, in per cent.

As for `N=C(N)NN` [PIMAGEDINE], the “inhibition (INH)” value in data set [1] is 76%.
For the compound `Oc1cc(O)cc(Oc2c(O)cc(O)c3c2Oc2c(O)cc(O)cc2O3)c1` [ECKOL], in data set [1], the “inhibition (INH)” value turned out to be 96.2%. This compound also came in with an inhibition in data set [2] of 87.5%.
Taken in the same sequence, the figures for `Oc1cc(O)cc(Oc2c(O)cc(O)c3c2Oc2c(O)cc(Oc4c(O)cc(Oc5c(O)cc(O)c6c5Oc5c(O)cc(O)cc5O6)cc4O)cc2O3)c1` [DIECKOL] were 86.7% and 97.5%.
